The source of these data is ChEMBL document CHEMBL1177677, “Tryptamine-derived alkaloids from Annonaceae exerting neurotrophin-like properties on primary dopaminergic neurons” (Bioorg Med Chem, 2010).

For orientation: IC50 means the concentration that gives 50% inhibition.

The subject of series [1] is Neuron. Briefly: Neuroprotective activity against degeneration of rat DA neurons assessed as […] immunopositive neurons at 10 nM by immunofluorescence staining relative to control. Format: functional.
Series [2] has as its system Neuron. Nature of the series: Neuritogenic effect in rat DA neurons assessed as total neurite length per […] immunopositive neurons at 10 nM relative to control. Format: functional.
Series [3] is described as follows: Antioxidant activity assessed as ABTS radical scavenging activity. It counts as functional.
Series [4] relates to Neuron. Briefly: Antioxidant activity in mesecephalic neuron assessed as ROS production at 10 uM by dihydrorhodamine-123 incorporation assay relative to control. Format: functional.
The next series is filed under the species Mus musculus. Briefly: Toxicity in Swiss mouse assessed as change in body weight, food intake. Format: organism-based. The note with it: in vivo.
The test system of series [5] is Neuron. Nature of the series: Antioxidant activity in mesecephalic neuron assessed as ROS production at 10 nM by dihydrorhodamine-123 incorporation assay relative to control. It counts as functional.
The next series relates to Brain. Briefly: Biodistribution in Swiss mouse brain at 150 mg/kg, iv. Format: ADME, organism-based. Set-up: dose 150 mg/kg, route intravenous. Particulars: in vivo.
Series [6] has as its system Neuron. Briefly: Neuritogenic effect in rat DA neurons assessed as total neurite length per […] immunopositive neurons at 200 nM relative to control. Format: functional.
The test system of series [7] is Neuron. Briefly: Neuroprotective activity against degeneration of rat DA neurons assessed as […] immunopositive neurons immunofluorescence staining at 200 nM relative to control. Format: functional.

The structures appear in SMILES notation.

On to `CCCCCCCCCCCCC(=O)NCCc1c[nH]c2ccccc12`, for which the values for the Activity in the series on Neuron [1] and with Neuron [2] were 98.5% and 126.2%, respectively. Besides, the IC50 in series [3] was greater than 1000 µM.

For the compound `CCCCCCCCCCCCCCCCCCCCCCCNCCc1c[nH]c2ccccc12`, the Activity stood at 129.6% in the series on Neuron [1] and 141.2% with Neuron [2]. The IC50 in series [3] came to 670 µM.

As to `CCCCCCCCCCCCCCCCCC(=O)NCCc1c[nH]c2ccccc12`, the results for the Activity with Neuron [1] and in the series with Neuron [2] were 110% and 149.9%, respectively.

In the case of `Cc1c(C)c2c(c(C)c1O)CCC(C)(C(=O)O)O2` (stereo unspecified) [TROLOX], in the series with Neuron [4], the Activity is given as 44%. Moreover, the IC50 in series [3] came to 550 µM.

On to `CCCCCCCCCCCCCCCCNCCc1c[nH]c2ccccc12`, for which the Activity is 131.9% with Neuron [1], 197% in the series with Neuron [2], “Non-toxic” in the series filed under Mus musculus and 47.8% in the series on Neuron [5]. For the same compound, the IC50 in series [3] turned out to be 620 µM. In the series with Brain, this compound displayed a Drug uptake of 21.8 ng/mL.

Regarding `CCCCCCCCCCCCCCCCCCCCCCC(=O)NCCc1c[nH]c2ccccc12`, the Activity in the series on Neuron [1] is reported as 114%; in the series with Neuron [2] it was 145.4%.

Take `OCCCCCCCCCCCCCCCNCCc1c[nH]c2ccccc12`: the figures for the Activity in the series on Neuron [1], in the series with Neuron [2] and in the series on Neuron [5] were 129.4%, 160.8% and 43.7%, respectively. Further, the IC50 in series [3] turned out to be 730 µM.

In the case of `O=C(CCCCCCCCCCCCCCO)NCCc1c[nH]c2ccccc12`, the Activity worked out at 108% with Neuron [1], 159.3% with Neuron [2] and 60.9% in the series with Neuron [5]. In addition, the half-inhibitory concentration (IC50) in series [3] is greater than 1000 µM.

Consider `CCCCCCCCCCCCCCCC(=O)NCCc1c[nH]c2ccccc12`, for which the Activity is recorded as 121.3% with Neuron [1], 168.6% with Neuron [2] and 55.9% in the series with Neuron [5]. Further, the IC50 in series [3] was greater than 1000 µM.

`CCCCCCCCCCCCCCCCCCCCNCCc1c[nH]c2ccccc12`: the values for the Activity in the series on Neuron [1] and in the series on Neuron [2] were 128.9% and 132.6%, respectively.

Regarding `CCCCCCCCCCCCCNCCc1c[nH]c2ccccc12`, the Activity with Neuron [1] was found to be 92.8%; with Neuron [2], 121.2%. Also, in [3], the IC50 was 810 µM.

As to `CCCCCCCCCCCCCCCCCCNCCc1c[nH]c2ccccc12`, the Activity in the series with Neuron [1] is 129.9%; with Neuron [2], 157.3%.

Take `CCCCCCCCCCCCCCCCC(=O)NCCc1c[nH]c2ccccc12`: the values for the Activity in the series on Neuron [1] and in the series with Neuron [2] were 106% and 136%, respectively.

As to `CCCCCCCCCCCCCCCCCCCC(=O)NCCc1c[nH]c2ccccc12`, the Activity with Neuron [1] is recorded as 121.8%; in the series on Neuron [2], 147.4%.

As for `CCCCCCCCCCCCCCCCCNCCc1c[nH]c2ccccc12`, the Activity with Neuron [1] came out at 110.6%; in the series on Neuron [2], 139%.

Take `CCCCC/C=C\C/C=C\CCCCCCCCNCCc1c[nH]c2ccccc12`: the Activity with Neuron [1] is given as 137.5%; in the series with Neuron [2], 156.7%; with Neuron [5], 44%. The IC50 in [3] is 340 µM.

On to `CCCC(=O)Nc1ncnc2c1ncn2[C@@H]1O[C@@H]2COP(=O)(O)O[C@H]2[C@H]1OC(=O)CCC` [BUCLADESINE], for which the Activity turned out to be 333.1% in the series on Neuron [6] and 149.9% in the series with Neuron [7].

With `CCCCCCCCCCCCCCC(=O)NCCc1c[nH]c2ccccc12`, the Activity in the series with Neuron [1] is reported as 99.3%; in the series on Neuron [2], 139%.

On to `CCCCC/C=C\C/C=C\CCCCCCCC(=O)NCCc1c[nH]c2ccccc12`, for which the Activity in the series on Neuron [1] came to 111.4%; with Neuron [2], 154%; with Neuron [5], 56.5%.

Turning to `CCCCCCCCCCCCCCCNCCc1c[nH]c2ccccc12`, the results for the Activity in the series with Neuron [1] and in the series on Neuron [2] were 106% and 132.7%, respectively.
